Patent US20020082448A1, “Aminoguanidine carboxylates for the treatment of non-insulin-dependent diabetes mellitus” (The Upjohn Company, priority 1999, published 2002)
Where two headings read alike, the source gives them in different places.

Experiments:
[1] = test system: proteins; conditions: in vitro; cited from earlier work
[2] = cited from earlier work
[3] = test system: rats; conditions: cited from earlier work; for effect on hyperglycemia: chronic oral
[4] = test system: advanced glycosylation endproducts; conditions: in vivo; cited from earlier work
[5] = test system: KKAy mice; experiment: Reduction of non-fasting blood glucose in KKAy mice, compound admixed in chow; assay type: in vivo, mouse; conditions: for % Change Blood Glucose: Day 3 vs Day-1
From the text: (§1) KKAy mice are rodent models of NIDDM and obesity (Chang, Wyse, Copeland, Peterson, and Ledbetter, 1986). A pre-treatment blood sample was obtained from the retro-orbital sinus and the mice arranged in groups of 6 so that the mean pre-treatment blood glucose level was the same on average in all groups. […] Control mice received unsupplemented chow. On Day 0, the mice were weighed and provided control chow or chow supplemented with test compounds. After 3 days of consuming control chow or chow supplemented with test compounds, a blood sample was obtained for determination of the glucose concentration and the animals were weighed for determination of weight loss. Food consumption was measured by weighing the food provided at the beginning of the study and the food residue at the end of the study. Food consumption was calculated by subtracting the weight of the residue from the weight of the food provided. […] Blood glucose data are expressed as the average blood glucose concentration in the test group divided by the average blood glucose level in the control group (treatment/control or T/C). Compounds resulting in T/C values equal to or less than 0.90 are considered to be active anti-hyperglycemic agents. Weigh loss data are expressed as percent change in body weight. Compounds resulting in a decrease of 1% or more less than control in body weight over three days are considered to be active anti-obesity agents.

[6] = Body weight change in KKAy mice, compound admixed in chow; assay type: in vivo, mouse; conditions: for % Change Body Weight: Day 3 vs Day-1
From the text: as §1, with “provided. Drug intake was calculated by multiplying food consumption by 0.5%.” for “provided.”

[7] = test system: C57BL mice; experiment: Intraperitoneal glucose tolerance in non-diabetic C57BL mice; assay type: in vivo, mouse; conditions: for Blood Glucose: C57BL mice, 100 mg/kg oral gavage
[8] = test system: KKAy mice; experiment: Intraperitoneal glucose tolerance in diabetic KKAy mice; assay type: in vivo, mouse; conditions: for Blood Glucose: KKAy mice, 100 mg/kg oral gavage
[9] = target: human serum albumin (Homo sapiens, UniProt P02768); experiment: Non-enzymatic glycosylation of human serum albumin, [14C]-glucose incorporation; assay type: biochemical; conditions: for non-enzymatic glycosylation of human serum albumin in vitro: Table 8 assay; for % [14C-glucose] Incorporated: test compound 19.1 mM, 100 mM [14C]-D-glucose, human serum albumin, 37° C., 8 days, control 1.50
Chain of human serum albumin (P02768 25-609): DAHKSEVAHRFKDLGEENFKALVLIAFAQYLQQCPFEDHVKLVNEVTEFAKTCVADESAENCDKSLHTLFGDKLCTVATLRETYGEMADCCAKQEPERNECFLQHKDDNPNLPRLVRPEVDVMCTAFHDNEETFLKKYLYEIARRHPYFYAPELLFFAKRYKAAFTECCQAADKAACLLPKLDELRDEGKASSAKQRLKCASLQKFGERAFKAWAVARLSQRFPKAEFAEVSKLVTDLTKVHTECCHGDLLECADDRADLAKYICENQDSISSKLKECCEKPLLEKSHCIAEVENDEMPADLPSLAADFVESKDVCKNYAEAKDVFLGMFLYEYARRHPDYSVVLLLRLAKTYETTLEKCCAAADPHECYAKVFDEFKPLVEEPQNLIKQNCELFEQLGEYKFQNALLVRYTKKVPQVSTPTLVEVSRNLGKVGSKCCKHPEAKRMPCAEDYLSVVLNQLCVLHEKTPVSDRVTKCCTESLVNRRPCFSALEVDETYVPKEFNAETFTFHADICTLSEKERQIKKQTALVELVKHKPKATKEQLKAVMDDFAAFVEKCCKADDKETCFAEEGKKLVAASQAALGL

[10] = test system: mice; conditions: cited from earlier work
[11] = test system: rats; conditions: cited from earlier work
[12] = test system: mice; conditions: cited from earlier work; for effect on hyperglycemia / effect on blood glucose concentration: chronic oral; for effect on blood glucose concentration: 250 mg/kg/day
[13] = cited from earlier work; remark: listed apart in the source
[14] = cited from earlier work; remark: listed apart in the source
[15] = test system: erythrocyte plasma membranes; conditions: incubated with glucose in vitro, cited from earlier work
[16] = normal or alloxan-diabetic rats
[17] = 0.03% in chow (approx. 30 mg/kg/day)
[18] = 0.06% in chow (approx. 60 mg/kg/day)
[19] = 0.10% in chow (approx. 100 mg/kg/day)
[20] = 0.2% in chow (approx. 200 mg/kg/day)
[21] = 0.3% in chow (approx. 300 mg/kg/day)
[22] = 0.4% in chow (approx. 400 mg/kg/day)
[23] = 30 min after 2 g/kg glucose I.P.
[24] = 60 min after 2 g/kg glucose I.P.
[25] = 90 min after 2 g/kg glucose I.P.
[26] = fasted 16-17 h, Time 0 (before 2 g/kg glucose I.P.)
[27] = 0.5% in chow (approx. 500 mg/kg/day)

N/N=C(\N)NN [Diaminoguanidine]
non-enzymatic glycosylation of proteins [1]: inhibit | effect on body weight [2, 16]: does not affect | effect on blood glucose level [3, 16]: no effect | formation of advanced glycosylation endproducts [4]: inhibit

NNC(=NCC(=O)O)NN [N-(dihydrazinomethylene)-glycine]
dose for a similar (25%) reduction in the blood glucose level [5]: 30 to 60 mg/kg/day | dose required to reduce the blood glucose level by 20% [5]: 30 mg/kg/day | % Change Blood Glucose [5, 17]: −13.5 ± 10.5% | % Change Blood Glucose [5, 18]: −34.9 ± 17.1 % | decrease in the blood glucose level ([5]; 60 mg/kg/day, 4 days): 35% | % Change Blood Glucose [5, 19]: −45.2 ± 6.4 % | % Change Blood Glucose [5, 20]: −69.9 ± 3.2 ¶ % | % Change Blood Glucose [5, 21]: −70.4 ± 1.5 ¶ % | % Change Blood Glucose [5, 22]: −70.3 ± 3.9 ¶ % | % Change Body Weight [6, 17]: −0.92 ± 0.35% | % Change Body Weight [6, 18]: −1.51 ± 2.11% | % Change Body Weight [6, 19]: −4.04 ± 0.76 % | decrease in the body weight ([6]; 100 mg/kg/day, 4 days): 4% | % Change Body Weight [6, 20]: −8.22 ± 1.05 % | % Change Body Weight [6, 21]: −9.94 ± 1.62 ¶ % | % Change Body Weight [6, 22]: −10.3 ± 0.97 ¶ % | Blood Glucose [7, 23]: 174 ± 17 mg/dL | Blood Glucose [7, 24]: 153 ± 7 mg/dL | Blood Glucose [7, 25]: 161 ± 19 mg/dL | Blood Glucose [7, 26]: 114 ± 9 mg/dL | fasting blood glucose concentration ([7]; normal C57BL mice, 100 mg/kg): decreased | glucose tolerance ([7]; normal C57BL mice, 100 mg/kg): improved glucose tolerance | Blood Glucose [8, 23]: 383 ± 38 mg/dL | Blood Glucose [8, 24]: 396 ± 63 mg/dL | Blood Glucose [8, 25]: 392 ± 67 mg/dL | Blood Glucose [8, 26]: 115 ± 16 mg/dL | glucose tolerance ([8]; diabetic KKAy mice, 100 mg/kg): improved glucose tolerance | non-enzymatic glycosylation of human serum albumin in vitro [9]: reduced | % [14C-glucose] Incorporated [9]: 0.81 (P < 0.05 vs. Control) %

CN(C)C(=N)N=C(N)N [Metformin]
glucose tolerance ([10]; normal mice, 50 mg/kg): not affect glucose tolerance | oral glucose tolerance ([10]; normal mice, 250 mg/kg): oral glucose tolerance was increased | glucose tolerance ([11]; normal rats, 750 mg/kg): not affect glucose tolerance | oral glucose tolerance ([11]; streptozotocin-diabetic rats, 250 mg/kg): oral glucose tolerance was increased | effect on hyperglycemia ([12]; DBM mice, 400 mg/kg/day): reduces hyperglycemia | dose required to reduce the blood glucose level by 25% ([12]; KKAy mice (Meglasson et al.)): 300 mg/kg/day | effect on hyperglycemia ([12]; KKAy mice, 300 mg/kg/day or more): reduces hyperglycemia | effect on blood glucose concentration ([12]; diabetic ob/ob mice): did not affect | effect on blood glucose concentration ([12]; normal mice): did not affect | effect on blood glucose concentration ([12]; streptozotocin-diabetic mice): did not affect | effect on hyperglycemia ([3]; Zucker fa/fa rats, 350 mg/kg/day): reduces hyperglycemia | effect on hyperglycemia ([3]; neonatal streptozotocin-diabetic rats, 100 mg/kg/day): reduces hyperglycemia | effect on blood glucose level ([3]; rats, acute administration, 264 mg/kg): did not affect | effect on body weight ([13]; KKAy mice, 1700 mg/kg/day, not at lower doses): statistically significant weight loss | effect on body weight ([13]; diabetic ob/ob mice, 240 mg/kg/day): did not cause weight loss | effect on body weight ([13]; streptozotocin-diabetic mice, 60 mg/kg/day): did not cause weight loss | effect on body weight ([14]; non-insulin dependent diabetic patients treated for one year (Bailey)): cause weight loss | effect on body weight ([14]; obese non-insulin dependent diabetic patients, similar length of time (Multi-centre Study)): no significant effect | non-enzymatic glycosylation of erythrocyte plasma membranes ([15]; 0.5 and 5 micromoles per liter): inhibit non-enzymatic glycosylation | non-enzymatic glycosylation of erythrocyte plasma membranes ([15]; 50 and 100 micromoles per liter): reverse effect

N=C(N)NN [Aminoguanidine]
non-enzymatic glycosylation of proteins [1]: inhibit | effect on body weight ([2]; human and rats (Baylin et al.)): increase in body weight | effect on body weight ([2]; normal or diabetic rats): no effect | effect on blood glucose level ([3]; normal rodents or rats made diabetic by alloxan or streptozotocin): no effect | non-enzymatic glycosylation of human serum albumin in vitro [9]: effective | % [14C-glucose] Incorporated [9]: 0.96 (P < 0.05 vs. Control) % | formation of advanced glycosylation endproducts [4]: inhibit

CCCCNC(=N)NC(=N)N [buformin]
effect on blood glucose level ([3]; rats, acute administration, 132 mg/kg): did not affect

N=C(N)NCCC(=O)O [3-Guanidinopropionic acid]
dose required to reduce the blood glucose level by 20% [5]: 130 mg/kg/day | % Change Blood Glucose [5, 27]: −38.4 ± 4.4 % | % Change Body Weight [6, 27]: −5.4 ± 0.81 % | glucose tolerance ([10]; diabetic KKAy mice, 1% admixture in chow, approximately 1000 mg/kg/day): improves glucose tolerance | non-enzymatic glycosylation of human serum albumin in vitro [9]: no effect | % [14C-glucose] Incorporated [9]: 1.52%

Cl.N=C(N)NNCC(=O)O [[2-(aminoiminomethyl)hydrazino]-, monohydrochloride acetic acid]
non-enzymatic glycosylation of human serum albumin in vitro [9]: reduced | % [14C-glucose] Incorporated [9]: 1.29 (P < 0.10 vs. Control) %
